*1 amine or outer side, *2 acyl side, *3 side chain or, on linkers, in order; H or OH if unused. Where a SMILES comes first, the peptide text is derived from it. Where no end group is shown, it is not given here. [ ]: non-standard residue; d: D form. γGlu = O=C(O)[C@H](CCC(=O)[*:2])N[*:1]; βAsp = O=C(O)[C@H](CC(=O)[*:2])N[*:1]; Cya = N[C@@H](CS(=O)(=O)O)C(=O)O; Cit = NC(=O)NCCC[C@H](N)C(=O)O

One assay has as its target HLA-A*02:01 (Homo sapiens, UniProt P04439, D140Y/D185E/D98H/E176V/E277Q/G131W/G231S/I119V/I121R/I166T/I218V/L300P/L318F/N151K/N90K/P208A/P217A/Q86G/Q94H/R138H/R169H/T345S). Description: HLA-peptide competition binding assay, A*02:01.
Details: not given
In the case of MALWMRLLPL, the IC50 stood at 1260 nM. Still for that read-out and setting: under LMGDKSENV [reference compound] stands 7370 nM; under `CSCC[C@H](NC(=O)[C@H](Cc1c[nH]c2ccccc12)NC(=O)[C@H](CC(C)C)NC(=O)[C@H](C)NC(=O)[C@@H](N)CCSC)C(=O)N[C@@H](CCCNC(N)=O)C(=O)N[C@@H](CC(C)C)C(=O)N[C@@H](CC(C)C)C(=O)N1CCC[C@H]1C(=O)N[C@@H](CC(C)C)C(=O)O` (H-MALWM[Cit]LLPL-OH), 262 nM. Still for that read-out and setting: under `CC(C)C[C@H](NC(=O)[C@H](C)N)C(=O)N[C@@H](Cc1ccc(O)cc1)C(=O)N[C@@H](CC(C)C)C(=O)N[C@H](C(=O)N[C@@H](CS)C(=O)NCC(=O)N[C@@H](CCC(=O)O)C(=O)N[C@@H](CCCNC(N)=O)C(=O)O)C(C)C` stands 1240 nM.

The assay is the same for the next values; noted with them: post-translationally modified insulin peptide; competition binding assay; a dash indicates IC50 >40,000 nM; read-out: A*02:01 binding (IC50 nM) Modified.
For the compound `CC[C@H](C)[C@H](NC(=O)CNC(=O)[C@H](CCCNC(N)=O)NC(=O)[C@H](CCCCN)NC(=O)[C@H](CCC(N)=O)NC(=O)[C@H](CC(C)C)NC(=O)[C@@H](N)CO)C(=O)N[C@H](C(=O)N[C@@H](CCC(=O)O)C(=O)O)C(C)C` [SLQKUGIVE] (H-SLQK[Cit]GIVE-OH; N-terminus and C-terminus assumed), the IC50 is greater than 40000 nM. Same read-out and setting: under DEHLCGSHLV stands greater than 40000 nM. For `CC(C)C[C@H](NC(=O)[C@H](CC(=O)O)NC(=O)[C@H](CCC(=O)O)NC(=O)[C@H](C)NC(=O)[C@H](CCC(=O)O)NC(=O)[C@H](CCCNC(N)=O)NC(=O)[C@H](CCCNC(N)=O)NC(=O)[C@@H](N)[C@@H](C)O)C(=O)N[C@@H](CCC(N)=O)C(=O)O` (H-T[Cit][Cit]EAEDLQ-OH; N-terminus and C-terminus assumed), the IC50 was greater than 40000 nM. The same measure, in the same setting: under `CC(C)C[C@H](NC(=O)[C@H](Cc1c[nH]cn1)NC(=O)CC[C@H](N)C(=O)O)C(=O)N[C@@H](CS)C(=O)NCC(=O)N[C@@H](CO)C(=O)N[C@@H](Cc1c[nH]cn1)C(=O)N[C@@H](CC(C)C)C(=O)N[C@H](C(=O)O)C(C)C` [ZHLCGSHLV] (γGlu-HLCGSHLV-OH; N-terminus and C-terminus assumed) stands greater than 40000 nM; under `C[C@H](NC(=O)[C@H](CCC(=O)O)NC(=O)[C@H](CCCNC(N)=O)NC(=O)[C@H](CCCNC(N)=O)NC(=O)[C@@H](NC(=O)[C@H](CCCCN)NC(=O)[C@@H]1CCCN1C(=O)[C@@H](N)[C@@H](C)O)[C@@H](C)O)C(=O)N[C@@H](CCC(=O)O)C(=O)O` (H-TPKT[Cit][Cit]EAE-OH; N-terminus and C-terminus assumed), greater than 40000 nM; under `C[C@H](NC(=O)[C@H](CCC(=O)O)NC(=O)[C@H](CCCNC(N)=O)NC(=O)[C@H](CCCNC(N)=O)NC(=O)[C@@H](NC(=O)[C@H](CCCCN)NC(=O)[C@@H]1CCCN1C(=O)[C@@H](N)[C@@H](C)O)[C@@H](C)O)C(=O)N[C@@H](CCC(=O)O)C(=O)N[C@@H](CC(=O)O)C(=O)O` [TPKTUUEAED] (H-TPKT[Cit][Cit]EAED-OH; N-terminus and C-terminus assumed), greater than 40000 nM. On the same count and under the same terms, for VCGERGYFY the value was greater than 40000 nM. For CGERGYFYTP, the IC50 is greater than 40000 nM. For the compound `CC(C)C[C@H](NC(=O)[C@H](CC(=O)O)NC(=O)[C@H](CCC(=O)O)NC(=O)[C@H](C)NC(=O)[C@H](CCC(=O)O)NC(=O)[C@@H](N)CCCNC(N)=O)C(=O)N[C@@H](CCC(N)=O)C(=O)N[C@H](C(=O)NCC(=O)N[C@@H](CCC(N)=O)C(=O)O)C(C)C` (H-[Cit]EAEDLQVGQ-OH; N-terminus and C-terminus assumed), the IC50 is greater than 40000 nM.

Turning to `CC(C)C[C@H](NC(=O)[C@H](Cc1c[nH]cn1)NC(=O)[C@H](CO)NC(=O)CNC(=O)[C@H](CS)NC(=O)[C@H](CC(C)C)NC(=O)[C@H](Cc1c[nH]cn1)NC(=O)CC[C@H](NC(=O)C[C@H](N)C(=O)O)C(=O)O)C(=O)O` [OZHLCGSHL] ({βAsp-γGlu}-HLCGSHL-OH; N-terminus and C-terminus assumed), the IC50 is greater than 40000 nM. The same measure, in the same setting: under `CC(C)C[C@H](NC(=O)[C@H](Cc1c[nH]cn1)NC(=O)CC[C@H](N)C(=O)O)C(=O)N[C@@H](CS)C(=O)NCC(=O)N[C@@H](CO)C(=O)N[C@@H](Cc1c[nH]cn1)C(=O)N[C@@H](CC(C)C)C(=O)N[C@H](C(=O)N[C@@H](CCC(=O)O)C(=O)O)C(C)C` [ZHLCGSHLVE] (γGlu-HLCGSHLVE-OH; N-terminus and C-terminus assumed) stands greater than 40000 nM; under `C[C@@H](O)[C@H](NC(=O)[C@H](Cc1ccc(O)cc1)NC(=O)[C@H](Cc1ccccc1)NC(=O)[C@H](Cc1ccccc1)NC(=O)CNC(=O)[C@H](CCCNC(N)=O)NC(=O)[C@H](CCC(=O)O)NC(=O)CNC(=O)[C@@H](N)CS)C(=O)N1CCC[C@H]1C(=O)O` (H-CGE[Cit]GFFYTP-OH; N-terminus and C-terminus assumed), greater than 40000 nM. With `CC(C)C[C@H](NC(=O)[C@H](CC(=O)O)NC(=O)[C@H](CCC(=O)O)NC(=O)[C@H](C)NC(=O)[C@H](CCC(=O)O)NC(=O)[C@@H](N)CCCNC(N)=O)C(=O)N[C@@H](CCC(N)=O)C(=O)N[C@H](C(=O)NCC(=O)O)C(C)C` (H-[Cit]EAEDLQVG-OH; N-terminus and C-terminus assumed), the IC50 is greater than 40000 nM.

Consider RGYFYTPKT, for which the IC50 was greater than 40000 nM.

Still in this assay, the particulars now being: post-translationally modified insulin-derived peptide; radiolabeled ligand competition, purified MHC, two-day incubation, three or more independent experiments; read-out: A*02:01 binding, Modified.
On to `CC(C)C[C@H](NC(=O)[C@@H](N)Cc1ccc(O)cc1)C(=O)N[C@H](C(=O)N[C@@H](CS(=O)(=O)O)C(=O)NCC(=O)N[C@@H](CCC(=O)O)C(=O)N[C@@H](CCCNC(=N)N)C(=O)NCC(=O)N[C@@H](Cc1ccc(O)cc1)C(=O)O)C(C)C` [YLVBGERGY] (H-YLV[Cya]GERGY-OH), for which the IC50 was 3240 nM.

In the case of `CSCC[C@H](NC(=O)[C@H](Cc1c[nH]c2ccccc12)NC(=O)[C@H](CC(C)C)NC(=O)[C@H](C)NC(=O)[C@@H](N)CCSC)C(=O)N[C@@H](CCCNC(N)=O)C(=O)N[C@@H](CC(C)C)C(=O)N[C@@H](CC(C)C)C(=O)N1CCC[C@H]1C(=O)O` (H-MALWM[Cit]LLP-OH), the IC50 stood at 2120 nM.

The assay is the same for the next values; noted with them: read-out: A*02:01 binding (IC50 nM) Modified.
Regarding `CC(C)C[C@H](NC(=O)[C@@H](N)Cc1ccc(O)cc1)C(=O)N[C@H](C(=O)N[C@@H](CS)C(=O)NCC(=O)N[C@@H](CCC(=O)O)C(=O)N[C@@H](CCCNC(N)=O)C(=O)NCC(=O)N[C@@H](Cc1ccccc1)C(=O)N[C@@H](Cc1ccccc1)C(=O)O)C(C)C` (H-YLVCGE[Cit]GFF-OH), the IC50 was determined as 2620 nM. With YLVCGERGY, the IC50 came out at 10800 nM.

As to `CC(C)C[C@H](NC(=O)[C@H](Cc1c[nH]cn1)NC(=O)[C@@H](N)CCC(N)=O)C(=O)N[C@@H](CS(=O)(=O)O)C(=O)NCC(=O)N[C@@H](CO)C(=O)N[C@@H](Cc1c[nH]cn1)C(=O)N[C@@H](CC(C)C)C(=O)N[C@H](C(=O)O)C(C)C` [QHLBGSHLV] (H-QHL[Cya]GSHLV-OH), the IC50 amounted to 37900 nM.

For the compound `CC(C)C[C@H](NC(=O)[C@@H](N)Cc1ccc(O)cc1)C(=O)N[C@H](C(=O)N[C@@H](CS)C(=O)NCC(=O)N[C@@H](CCC(=O)O)C(=O)N[C@@H](CCCNC(N)=O)C(=O)NCC(=O)N[C@@H](Cc1ccccc1)C(=O)O)C(C)C` (H-YLVCGE[Cit]GF-OH), the IC50 came out at 11400 nM.

On to `CSCC[C@H](NC(=O)[C@H](Cc1c[nH]c2ccccc12)NC(=O)[C@@H](N)CC(C)C)C(=O)N[C@@H](CCCNC(N)=O)C(=O)N[C@@H](CC(C)C)C(=O)N[C@@H](CC(C)C)C(=O)N1CCC[C@H]1C(=O)N[C@@H](CC(C)C)C(=O)N[C@@H](CC(C)C)C(=O)O` (H-LWM[Cit]LLPLL-OH), for which the IC50 was 148 nM. On to `CC(C)C[C@H](NC(=O)[C@H](CC(=O)O)NC(=O)[C@H](CCC(=O)O)NC(=O)[C@H](C)NC(=O)[C@H](CCC(=O)O)NC(=O)[C@H](CCCNC(N)=O)NC(=O)[C@H](CCCNC(N)=O)NC(=O)[C@@H](NC(=O)[C@@H](N)CCCCN)[C@@H](C)O)C(=O)N[C@@H](CCC(N)=O)C(=O)O` (H-KT[Cit][Cit]EAEDLQ-OH), for which the IC50 amounted to 22300 nM. On the same count and under the same terms, under `CC(C)C[C@H](NC(=O)[C@H](C)NC(=O)[C@H](CC(C)C)NC(=O)[C@H](CC(C)C)NC(=O)[C@@H]1CCCN1C(=O)[C@H](CC(C)C)NC(=O)[C@H](CC(C)C)NC(=O)[C@@H](N)CCCNC(N)=O)C(=O)N[C@@H](CC(C)C)C(=O)N[C@@H](C)C(=O)O` (H-[Cit]LLPLLALLA-OH) stands 70 nM.

Staying with this assay, now noted: read-out: A*02:01 binding (IC50 nM) WT.
As for EALYLVCGE, the IC50 came out at 12000 nM. As for YLVCGERGFF, the IC50 was determined as 1400 nM.

On to SLQKRGIVE [SLQKRGIVE], for which the IC50 was determined as 5950 nM. The same measure, in the same setting: for SHLVEALYL the value was 257 nM.

Regarding VEALYLVCGE, the IC50 amounted to 8870 nM.

As for MRLLPLLALL, the IC50 stood at 10 nM.

The assay is the same for the next values; noted with them: read-out: IC50 nM, target assay A*02:01.
Consider LNIDLLWSV [reference compound], for which the IC50 came to 684 nM.

TIADFWQMV [reference compound]: the IC50 was 4690 nM.

Turning to LIFDLGGGT [reference compound], the IC50 came to 5420 nM. On the same count and under the same terms, for ILVLASTITI [reference compound] the value was 675 nM. On the same count and under the same terms, under ILKDFSILL [reference compound] stands 39 nM; under SLQKRGIVEQ [reference compound], greater than 40000 nM; under SLASLLPHV [reference compound], 9.1 nM.

For the compound VVTGVLVYL [reference compound], the IC50 was found to be 9 nM.

For the compound GIPPAPHGV [reference compound], the IC50 is 219 nM.

Still in this assay, the particulars now being: unmodified (WT) insulin peptide; competition binding assay; a dash indicates IC50 >40,000 nM; read-out: A*02:01 binding (IC50 nM) WT.
LVCGERGFF: the IC50 was greater than 40000 nM. Still for that read-out and setting: under CGSHLVEAL [CGSHLVEAL] stands greater than 40000 nM; under RREAEDLQV, greater than 40000 nM.

Regarding QHLCGSHLV, the IC50 is greater than 40000 nM. Still for that read-out and setting: for LEGSLQKRG the value was greater than 40000 nM; for TRREAEDLQV, greater than 40000 nM.

Still in this assay, the particulars now being: unmodified (wild type) insulin-derived peptide; radiolabeled ligand competition, purified MHC, two-day incubation, three or more independent experiments; read-out: A*02:01 binding, WT.
Consider QHLCGSHLV, for which the IC50 was greater than 40000 nM. Same read-out and setting: under YLVCGERGF stands 6740 nM.

Values taken from publication PMC5863483, “Low HLA binding of diabetes-associated CD8+ T-cell epitopes is increased by post translational modifications” (BMC Immunology, 2018).
